The results in this text go back to patent publication US10487056B2, “Small molecule androgen receptor inhibitors and methods of use thereof” (GEORGETOWN UNIVERSITY, priority 2015, dated 2019).

Common to all, as to assay type: cell-based
The test system of one assay is 22Rv1-MDVR cells. The experiment in a line: Cell viability (MTT), 22Rv1-MDVR cells. Conditions: MDV3100, ARN-509 10 μM, SH-I-125 range, 3 days.
Assay [1] deals with AR. The assay is described as follows: Immunofluorescence staining of AR in 22Rv1-MDVR cells. Particulars: MDV3100 10 μM, ARN509 10 μM or SH-I-125 1 μM, 24 hours. The procedure:
[…]. AR and AR-V7 expression levels were assessed.
Immunofluorescence staining was performed as described in Amin et al., Mol. Cancer Ther., 13:341-52 (2014).

The target in assay [2] is T1, AR (Homo sapiens, UniProt P10275).
T1 construct: Androgen-dependent VCaP cells were made to stably express an androgen-response element luciferase reporter (VCaP-ARE-luc); host or cells: VCaP / VCaP-ARE-luc
T1 sequence (P10275 1-920): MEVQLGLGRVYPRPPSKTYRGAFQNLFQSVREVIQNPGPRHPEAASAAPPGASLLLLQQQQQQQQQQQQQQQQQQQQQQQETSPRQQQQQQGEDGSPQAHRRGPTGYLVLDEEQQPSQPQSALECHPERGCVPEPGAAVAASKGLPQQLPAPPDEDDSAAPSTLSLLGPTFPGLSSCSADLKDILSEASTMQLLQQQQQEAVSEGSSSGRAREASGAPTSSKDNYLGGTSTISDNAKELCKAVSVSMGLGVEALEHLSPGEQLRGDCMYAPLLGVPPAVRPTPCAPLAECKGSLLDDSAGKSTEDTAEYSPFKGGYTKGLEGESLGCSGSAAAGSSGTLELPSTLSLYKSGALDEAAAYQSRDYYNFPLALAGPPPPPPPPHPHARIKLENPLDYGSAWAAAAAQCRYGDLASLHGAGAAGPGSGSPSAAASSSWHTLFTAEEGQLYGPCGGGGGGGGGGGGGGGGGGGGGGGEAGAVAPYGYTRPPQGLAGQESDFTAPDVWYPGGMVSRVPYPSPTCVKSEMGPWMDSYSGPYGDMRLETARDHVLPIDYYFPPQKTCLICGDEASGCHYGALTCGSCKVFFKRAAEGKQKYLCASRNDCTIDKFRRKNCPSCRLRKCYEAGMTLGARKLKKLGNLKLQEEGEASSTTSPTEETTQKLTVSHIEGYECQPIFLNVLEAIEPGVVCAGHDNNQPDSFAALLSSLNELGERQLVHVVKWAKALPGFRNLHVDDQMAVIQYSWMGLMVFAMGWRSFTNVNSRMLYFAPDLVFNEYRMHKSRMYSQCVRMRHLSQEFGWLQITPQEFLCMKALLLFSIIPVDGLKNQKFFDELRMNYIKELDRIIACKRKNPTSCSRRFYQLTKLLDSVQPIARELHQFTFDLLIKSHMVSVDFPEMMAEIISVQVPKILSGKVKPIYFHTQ
The experiment in a line: VCaP-ARE-luc androgen-response element luciferase reporter assay. Conditions: DHT 1 nM, 24 hours. As to the method: (§1) VCaP and CWR22Rv1 (referred to as 22Rv1) cells were transduced with ARE-luciferase Cignal Lenti Pathway Reporter (Qiagen; Valencia, Calif.) and cultured as described above in the presence of 1 μg/mL puromycin. Following antibiotic selection, cells stably expressing ARE-luciferase were isolated, cloned and cultured to generate a stable ARE-reporter cell lines.
Androgen-dependent VCaP cells were made to stably express an androgen-response element luciferase reporter (VCaP-ARE-luc).
(In general: Reporter assays use an easily measured gene product as a stand-in for the process of interest.)

The test system of the next assay is hTERT promoter. The assay is described as follows: hTERT promoter-luciferase reporter in 22Rv1 cells. Conditions: 2.5 μM, 24 hours. The procedure:
22Rv1 cells were transfected with hTERT promoter-luciferase reporter construct and Renilla luciferase plasmids (pRL-TK-Luc) and treated with 2.5 μM of SH-I-125 for 24 hours. Promoter activity was determined after normalization with Renilla luciferase activity. Columns, mean of three independent experiments with quadruplicate samples; bars, SEM.

Assay [3] relates to AR. The assay is described as follows: 22Rv1-ARE-luc androgen-response element luciferase reporter assay. Particulars: 24 hours. As to the method: as §1

In the case of `COc1ccc2c(c1)[nH]c1c(C)c(OS(=O)(=O)c3cccc4ccccc34)ccc12` [SH-I-125, 7-methoxy-1-methyl-9H-carbazol-2-yl naphthalene-1-sulfonate], in the assay on 22Rv1-MDVR cells, the “cell growth / viability” value is listed as “effective in preventing the growth”. The AR nuclear localization entry with AR [1] is reported as “decreased AR nuclear levels”. In addition, the “potency relative to mahanine on AR signaling (ARE-luc)” value at AR [2] and with AR [3] was “more potent than mahanine” throughout. Besides, the “inhibition of AR transactivation (luciferase activity)” value against AR [2] (range of doses) is given as “comparable decline in luciferase activity”. The hTERT promoter-luciferase activity result in the assay with hTERT promoter is recorded as “unaffected”. For the same compound, the ARE-luciferase activity entry in the assay with AR [3] (range of doses) is recorded as “almost completely abolishing ARE-luciferase activity”.
